According to patent US20240262835A1, “PRMT5 INHIBITING COMPOUNDS AND USES THEREOF” (ANTENGENE DISCOVERY LIMITED, priority 2023, published 2024):
Where two headings read alike, the source gives them in different places.

Columns and labels:
PRMT5/MEP50 complex = PRMT5/MEP50 complex (Homo sapiens (Human), UniProt O14744); assay: PRMT5/MEP50 HotSpot methyltransferase assay (with 100 nM MTA); assay type: biochemical; conditions: histone H2A substrate, 1 μM 3H-SAM
Method: The assay used recombinant full-length histone H2A as the substrate of PRMT5. Enzymatic transfer of the tritiated methyl group from S-adenosyl-L-[methyl-3H]methionine (3H-SAM) to the histone H2A protein generated a radiolabeled histone H2A by measuring in a scintillation counter to determine the activity of PRMT5 enzyme in the presence and absence of compound. The assay reactions were conducted in the presence of 100 nM MTA. Briefly, compounds were solubilized in 100% DMSO at the highest concentration of 10 mM. […] Control samples lacking compound, PRTM5/MEP50 complex or various reaction components also were prepared and processed in parallel with compound test samples. SAH was used as a positive control for assay validation. To measure PRMT5 inhibitory activity, 1 nM PRTM5/MEP50 complex was preincubated with test compound in assay buffer containing 5 μM full-length histone H2A for 15 minutes at room temperature. The enzymatic reaction was initiated by adding 1 μM 3H-SAM (final concentration) and the mixture was incubated at 30° C. for 1 hour. The reaction was stopped and transferred to filter paper for detection. The amount of tritiated H2A in each sample was determined using a scintillation counter. The IC50 value for each compound was calculated from each 10-point dose-response curve for samples using GraphPad Prism software.

[1] = tested on: HCT116 homozygous MTAP knockout cells; assay: HCT116 cell proliferation assay (CTG), MTAP knockout cells; assay type: cell-based, human; conditions: Cell Titer-Glo
Method: (§1) Control samples were analyzed in parallel.
(§2) On Day 0, 150 HCT116 parental or HCT116 homozygous MTAP knockout cells were seeded in 96-well plates in McCoy's 5A medium containing 10% fetal bovine serum and pen/strep. And the cells were incubated overnight at 37° C. and 5% CO2.
(§3) On Day 1, cells were treated with 9-point serial dilution of compound, using a top concentration of 50 μM, 1:5 serial dilution steps and, a DMSO-only control. And cells were incubated for 6 days.
(§4) On Day 7, cell viability was measured using a CTG assay Kit (Cell Titer-Glo; Promega, catalog no.: G7573) in accordance with the manufacturer's instructions. Assays plates were read on a EnVision™ Multilabel Reader using the Ultra-Sensitive luminescence model. The data were analyzed by GraphPad Prism 5.0 software, and the dose-effect curve was obtained by fitting the data using nonlinear S-curve regression, from which the IC50 value was calculated.

PRMT5/MEP50 = PRMT5/MEP50 (Homo sapiens (Human), UniProt O14744); assay: MTase-Glo methyl transferase assay (PRMT5 inhibition); assay type: biochemical; conditions: 50 nM PRMT5/MEP50, 25 μM SAM, 5 μM Histone H4 peptide (1-21), read-out: IC50 for PRMT5 inhibiting
PRMT5/MEP50, sequence (O14744 whole entry): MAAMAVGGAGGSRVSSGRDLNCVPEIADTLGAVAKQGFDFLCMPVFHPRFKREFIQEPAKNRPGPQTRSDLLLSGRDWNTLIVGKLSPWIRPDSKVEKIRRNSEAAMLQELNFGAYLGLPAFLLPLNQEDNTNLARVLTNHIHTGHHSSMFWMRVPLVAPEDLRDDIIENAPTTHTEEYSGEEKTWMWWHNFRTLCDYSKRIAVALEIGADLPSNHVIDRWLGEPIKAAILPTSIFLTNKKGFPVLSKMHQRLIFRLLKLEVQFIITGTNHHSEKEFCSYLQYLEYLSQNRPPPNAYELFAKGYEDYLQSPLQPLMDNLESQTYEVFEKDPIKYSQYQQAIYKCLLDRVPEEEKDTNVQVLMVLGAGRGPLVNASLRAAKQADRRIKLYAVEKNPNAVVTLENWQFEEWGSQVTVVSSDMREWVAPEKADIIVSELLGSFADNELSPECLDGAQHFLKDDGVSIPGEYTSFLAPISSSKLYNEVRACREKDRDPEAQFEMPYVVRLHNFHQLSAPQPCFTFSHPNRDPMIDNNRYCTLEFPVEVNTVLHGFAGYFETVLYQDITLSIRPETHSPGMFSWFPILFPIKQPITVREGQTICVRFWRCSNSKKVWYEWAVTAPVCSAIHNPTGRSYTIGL
PRMT5/MEP50, sequence (Q9BQA1 whole entry partner): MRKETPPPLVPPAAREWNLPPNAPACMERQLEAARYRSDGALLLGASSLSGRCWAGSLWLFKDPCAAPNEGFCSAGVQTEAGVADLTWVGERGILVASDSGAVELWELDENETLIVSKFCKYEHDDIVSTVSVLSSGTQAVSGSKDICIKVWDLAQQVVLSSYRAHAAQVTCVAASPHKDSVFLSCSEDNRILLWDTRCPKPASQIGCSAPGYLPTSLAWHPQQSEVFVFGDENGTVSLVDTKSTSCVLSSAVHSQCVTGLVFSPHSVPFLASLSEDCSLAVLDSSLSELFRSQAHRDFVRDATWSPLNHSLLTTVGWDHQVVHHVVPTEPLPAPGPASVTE
Method: The PRMT5 inhibitory activity of test compounds was determined using the MTase-Glo™ assay (Promega), which monitors the product (S-adenosyl homocysteine or SAH) of methyltransferase reactions. The PRMT5 MTase-Glo assays were conducted in a 384-well white ProxiPlate (PerkinElmer, catalog no.: 6008280) in a total volume of 12 μL. The PRMT5 enzymatic reaction (in 4 μL) contained 50 nM PRMT5/MEP50 (Reaction Biology Corp, catalog no.: HMT-22-148), 25 μM S-adenosyl methionine (SAM, Promega), 5 μM Histone H4 peptide (1-21) (BPS Bioscience, catalog no.: 52018-2) and five-fold serially diluted compounds in a reaction buffer of 50 mM Tris (pH 8.0), 50 mM NaCl, 0.01% Tween 20, 0.01% BSA, and 1 mM DTT. The test compounds were pre-incubated with PRMT5/MEP50 and Histone H4 peptide for 20 minutes at room temperature before the addition of SAM to initiate the PRMT5 reaction. The reaction was allowed to proceed for 1 hour at 37° C. and was terminated by 2 μL of 3× MTase-Glo™ Reagent (Promega) and 150 μM EPZ015666 (Selleck, catalog no.: 1616391-65-1). After a 30-minute incubation at room temperature, 6 μL of MTase-Glo™ Detection Solution (Promega) was added and the plate was incubated at room temperature for an additional 30 minutes. The light signal corresponding to the amount of SAH produced by the PRMT5 reaction was subsequently measured using an Envision multimode reader (PerkinElmer). IC50 and Ki values were obtained by analyzing dose-response curves using GraphPad Prism.

[2] = tested on: HCT116 parental (wild type) cells; assay: HCT116 cell proliferation assay (CTG), parental cells; assay type: cell-based, human; conditions: Cell Titer-Glo
Method: as §1, §2, §3, §4

[3] = Liver microsome metabolic stability (LMS) assay, human; conditions: human, microsomes
in vitro [4] = conditions: dog, microsomes
in vitro [5] = conditions: human, microsomes
[6] = rat, microsomes, 1 μM
in vitro [7] = conditions: cynomolgus monkey, microsomes
[8] = target: hERG potassium ion channel (Homo sapiens (Human), UniProt Q12809); assay: hERG potassium ion channel inhibition assay (automated patch-clamp, CHO-hERG cells); assay type: cell-based; conditions: Qpatch, highest test concentration 40.00 μM
hERG potassium ion channel, sequence (Q12809 whole entry): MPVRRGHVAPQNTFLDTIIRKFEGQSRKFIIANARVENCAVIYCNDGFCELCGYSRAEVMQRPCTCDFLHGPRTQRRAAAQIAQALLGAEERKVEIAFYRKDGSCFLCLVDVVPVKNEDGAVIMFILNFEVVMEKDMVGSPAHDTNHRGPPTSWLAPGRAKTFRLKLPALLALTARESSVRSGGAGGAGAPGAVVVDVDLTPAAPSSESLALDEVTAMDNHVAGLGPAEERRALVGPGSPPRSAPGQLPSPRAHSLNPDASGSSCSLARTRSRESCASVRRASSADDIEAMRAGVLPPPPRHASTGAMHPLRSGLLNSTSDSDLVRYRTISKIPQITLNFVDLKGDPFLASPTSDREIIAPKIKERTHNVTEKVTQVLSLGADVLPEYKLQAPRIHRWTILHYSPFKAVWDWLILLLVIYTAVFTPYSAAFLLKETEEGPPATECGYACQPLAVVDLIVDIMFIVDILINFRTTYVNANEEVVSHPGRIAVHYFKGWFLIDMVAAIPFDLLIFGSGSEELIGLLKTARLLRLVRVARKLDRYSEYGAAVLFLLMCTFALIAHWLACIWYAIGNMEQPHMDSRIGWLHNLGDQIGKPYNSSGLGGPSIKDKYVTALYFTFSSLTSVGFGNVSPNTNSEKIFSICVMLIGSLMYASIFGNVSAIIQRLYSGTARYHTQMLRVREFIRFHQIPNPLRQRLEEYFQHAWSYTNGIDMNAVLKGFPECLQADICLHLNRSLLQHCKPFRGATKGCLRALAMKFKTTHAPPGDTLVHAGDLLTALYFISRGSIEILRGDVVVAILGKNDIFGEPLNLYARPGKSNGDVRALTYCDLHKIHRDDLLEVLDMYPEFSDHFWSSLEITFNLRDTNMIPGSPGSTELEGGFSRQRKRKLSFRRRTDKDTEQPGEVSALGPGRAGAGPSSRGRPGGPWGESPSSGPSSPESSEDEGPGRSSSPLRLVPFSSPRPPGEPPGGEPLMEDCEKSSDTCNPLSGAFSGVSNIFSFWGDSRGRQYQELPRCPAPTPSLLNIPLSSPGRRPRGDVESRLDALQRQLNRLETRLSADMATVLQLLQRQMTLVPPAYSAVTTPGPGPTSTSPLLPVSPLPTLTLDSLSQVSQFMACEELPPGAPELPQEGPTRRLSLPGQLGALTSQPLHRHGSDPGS
Method: Drug-hERG interaction was measured by automated patch-clamp methods, with cisapride as positive control.
1.1 CHO-hERG cells were cultured in 175 cm^2 culture bottle. After the cell density grew to 60-80%, the culture medium was removed, washed with 7 mL of phosphate buffered saline (PBS), and then digested with 3 mL Detachin.
1.2 After the digestion was complete, 7 mL culture solution was added for neutralization, and then centrifuged, the clear solution was sucked, and 5 mL culture solution was added for re-suspension to ensure the cell density was 2˜5×10^6/mL.
The process of single-cell high-impedance sealing and whole-cell pattern formation was all automatically completed by Qpatch instrument. After obtaining whole-cell recording mode, the cell was pinching at −80 millivolts. Before giving a 5-second +40 millivolt depolarization stimulus, a 50-millisecond pre-voltage of −50 millivolts was given first, and then repolarized to −50 millivolts for 5 seconds. Go back to −80 millivolts. This voltage stimulation was applied every 15 seconds, recorded for 2 minutes, then extracellular fluid was given and recorded for 5 minutes, and then the administration process began. The concentration of test compound was given from the lowest test concentration for 2.5 minutes per test concentration. After continuous administration of all concentrations, the positive control 3 μM cisapride was given. At least 2 cells were tested for each concentration (n≥2).
4.1 The compound mother liquor was diluted with DMSO, and 10 μL compound stock solution was added to 20 μL DMSO solution, which was continuously 3-fold diluted to 6 DMSO-concentrations.
4.2 4 μL of test compounds in 6 DMSO-concentrations were added to 396 μL extracellular solution and were 100-fold diluted to 6 intermediate concentrations. Then, 80 μL of test compounds in 6 intermediate concentrations were added to 320 μL extracellular solution and were 5-fold diluted to the final concentration to be tested.
4.3 The highest test concentration was 40.00 μM, and six test concentrations were 40.00, 13.33, 4.44, 1.48, 0.49, 0.16 μM, respectively.
4.5 Entire dilution process for test compound preparation was performed by Bravo instrument.
The experimental data were analyzed by GraphPad Prism 5.0 software.

[9] = In vivo pharmacokinetics assay in mice via IV and PO; parameters: species or system ICR mice; conditions: plasma; for Cmax: read-out: Cmax; for AUC0-t: read-out: AUC0-t
Method: Pharmacokinetics assay for test compounds was performed in mice via IV and PO.
Test compound solution was prepared on the day of administration.
Solvent: IV+PO: 5% DMSO+10% Soultol+85% H2O or saline
Species: ICR mice; SPF level.
Source: Beijing Vital River Laboratory Animal Technology Co., Ltd.
Animal selection: Males. No random grouping
Weighed before dosing, calculated dosage according to body weight. For Groups 1-3, the drug was administered intravenously or intragastrically. For Group 4, the drug administered intragastrically.
For Groups 1-3, at 0.083 h, 0.25 h, 0.5 h, 1 h, 2 h, 4 h, 6 h, 8 h, 24 h, after administration. For Group 4, at 2 h and 4 h after administration.
Blood was collected through the cheeks. For each sample, about 0.05 mL of blood was collected and was added heparin sodium or EDTA-2K as anticoagulant, and was placed on wet ice.
The blood samples were collected and placed on ice and was centrifuged within 1 hour (centrifugation: 6000 g, 3 minutes, 2-8° C.) to separate plasma. Plasma samples were stored in a −80° C. refrigerator prior to analysis.
The pharmacokinetic parameters were calculated using Phoenix WinNonlin8.2.0 based on the blood concentration data at different time points, and AUC0-t, AUC0-∞, MRT0-∞, Cmax, Tmax, and T1/2 and mean values and standard deviations thereof were provided.

[10] = Liver microsome metabolic stability (LMS) assay, mouse; conditions: mouse, liver microsomes
[11] = Hepatic metabolic stability (HMS) assay, rat hepatocytes; conditions: rat, cryopreserved hepatocytes
Method: 1) 10 mM test compounds were provided.
(§5) 2) 30 mM positive control stock solutions: Dissolved accurate amount of positive control compounds in dimethyl sulfoxide (DMSO).
(§6) 3) 1000× Stock Solution: Diluted 10 mM test compounds and 30 mM positive control compounds to 1 mM and 3 mM with DMSO in 96-well plates.
(§7) 4) 100× Dosing Solution: Diluted 1 mM test compounds and 3 mM positive control compounds to 100 μM and 300 μM dosing solutions with ACN.
(§8) 5) Preparation of 0.5×10^6/mL cells suspension: cryopreserved cells were thawed, isolated and suspended in Incubation Medium, then diluted with pre-warmed Incubation Medium to 0.5×10^6 cells/mL.
(§9) 6) Add 198 μL of pre-warmed cell suspensions in 96-well plates.
(§10) 7) Preparation of Quenching Plate: Transfer 125 μL of stop solution in a set of pre-labeled 96-well plates.
(§11) 8) Spike 2 μL dosing solution to each well of 96-well plates in duplicate.
(§12) 9) For TO Samples, mix to achieve a homogenous suspension for about 1 min, then immediately transfer 25 μL of each sample into well containing 125 μL of ice-cold stop solution followed by mixing.
(§13) 10) Incubate all plates at 37° C. in a 95% humidified incubator at 5% CO2 to start the reactions with constant shaking.
(§14) 11) At 15, 30, 60 and 90 min, mix samples and then transfer 25 μL of each sample at each time point to well containing 125 μL of ice-cold stop solution followed by mixing.
(§15) 12) Medium Control (MC) sample plates (labeled as TO-MC and T90-MC) are prepared in the same way as cell incubation except that medium was used instead of cell suspension.
(§16) 13) At each corresponding time point, stop the reactions by removing the plates from incubator and mixing with 125 μL of ice-cold stop solution.
(§17) 14) Vortex the plates immediately on a plate shaker at 600 rpm for 10 minutes. Then, centrifuge all sample plates at 3220×g for 20 min at 4° C.
(§18) 15) After centrifugation, 80 μL/well of supernatant in the sample plates are transferred to another set of pre-labeled 96-well plates which containing 240 μL of ultra pure water according to the plate map.
(§19) 16) Analytical plates are sealed and store at 4° C. until LC-MS/MS analysis.
(§20) The remaining percents of test articles after incubation were calculated by the follow equations:
(§21) Use the following equation of first order kinetics to calculate T1/2 and CLint:

[12] = tested on: cryopreserved hepatocytes; assay: as above; conditions: rat, hepatocytes
Method: 1) 10 mM test compounds were provided.
as §5, §6, §7, §8, §9, §10, §11, §12, §13, §14, §15, §16, §17, §18, §19, §20, §21

[13] = Hepatic metabolic stability (HMS) assay, mouse hepatocytes; conditions: mouse, cryopreserved hepatocytes
[14] = tested on: cryopreserved hepatocytes; assay: as above; conditions: mouse, hepatocytes
[15] = Hepatic metabolic stability (HMS) assay, dog hepatocytes; conditions: dog, cryopreserved hepatocytes
Method: 1) 10 mM test compounds were provided.
as §5, §6, §7, §8, §9, §10, §11, §12, §13, §14, §15, §16, §17, §18, §19, §20, §21

[16] = tested on: cryopreserved hepatocytes; assay: as above; conditions: dog, hepatocytes
Method: 1) 10 mM test compounds were provided.
as §5, §6, §7, §8, §9, §10, §11, §12, §13, §14, §15, §16, §17, §18, §19, §20, §21

[17] = Hepatic metabolic stability (HMS) assay, cynomolgus monkey hepatocytes; conditions: cynomolgus monkey, cryopreserved hepatocytes
[18] = tested on: cryopreserved hepatocytes; assay: as above; conditions: cynomolgus monkey, hepatocytes
[19] = Hepatic metabolic stability (HMS) assay, human hepatocytes; conditions: human, cryopreserved hepatocytes
[20] = tested on: cryopreserved hepatocytes; assay: as above; conditions: human, hepatocytes
[21] = Homo sapiens, HCT-116, 6 days treatment

PRMT5/MEP50 complex, sequence (O14744 whole entry, species assumed): as the sequence (O14744 whole entry) above
PRMT5/MEP50 complex, sequence (Q9BQA1 whole entry partner, species assumed): as the sequence (Q9BQA1 whole entry partner) above

In the case of `Cc1nc(C)n2c1c(N)nc1ccc(C(=O)N(Cc3ccc(C(F)(F)F)cn3)[C@H](C)c3ncccn3)cc12` [Compound 9], the IC50 (PRMT5/MEP50 complex) is reported as 321 nM, the IC50 ([1]; 6 days treatment) is reported as 72 nM and the IC50 (PRMT5/MEP50) is reported as 101 nM. For the same compound, the IC50 ([2]; 6 days treatment) was 1160 nM.

For `Cc1ncc2c(N)nc3ccc(C(=O)N(Cc4ccc(C(F)(F)F)cn4)[C@H](C)c4ncccn4)cc3n12` [Compound 7], the IC50 (PRMT5/MEP50 complex) was 91 nM, the IC50 ([1]; 6 days treatment) was 77 nM and the IC50 (PRMT5/MEP50) was 91 nM. The IC50 ([2]; 6 days treatment) was 961 nM.

For `Cc1ncn2c1c(N)nc1ccc(C(=O)N(Cc3ccc(C(F)(F)F)cn3)[C@H](C)c3ncccn3)cc12` [Compound 8], the IC50 (PRMT5/MEP50 complex) was 198 nM, the IC50 ([1]; 6 days treatment) was 97 nM and the IC50 (PRMT5/MEP50) was 104 nM. The IC50 ([2]; 6 days treatment) was 146 nM.

`O=C(O)Cc1ccccc1Nc1c(Cl)cccc1Cl` [Ref. 5, Diclofenac] gave a CLint scaled at 1 μM [3] of 185 mL/min/kg, a CLint scaled at 1 μM (in vitro [4]) of under 13.8 mL/min/kg and a half-life at 1 μM (in vitro [4]) of over 145 min. It also gave a microsomal CLint at 1 μM (in vitro [4]) of under 9.6 µL/min/mg, a half-life at 1 μM (in vitro [5]) of 6.7 min and a microsomal CLint at 1 μM (in vitro [5]) of 206 µL/min/mg. For the same compound, the “CLint (liver) R” value [6] was 233.1 mL/min/kg, the CLint scaled at 1 μM (in vitro [7]) was under 13 mL/min/kg and the half-life at 1 μM (in vitro [7]) was over 145 min. It also gave a microsomal CLint at 1 μM (in vitro [7]) of under 9.6 µL/min/mg.

Compound `CN(C(=O)c1cc2c(cn1)nc(N)c1cncn12)[C@@H]1COc2cc(C(F)(F)F)ccc21` [Compound 14] has an IC50 [8] of 17.9 µM, a C8 h ([9]; PO 30 mg/kg) of 3833 ng/mL and a C24 h ([9]; PO 30 mg/kg) of 574 ng/mL. It also gave a C8 h ([9]; PO 50 mg/kg) of 6927 ng/mL, a C24 h ([9]; PO 50 mg/kg) of 615 ng/mL and a Cmax ([9]; male, ICR, mouse, PO 30 mg/kg) of 7500 ng/mL. It also gave a Cmax ([9]; male, ICR, mouse, PO 50 mg/kg) of 9920 ng/mL, a clearance ([9]; male, ICR, mouse, IV 1.0 mg/kg) of 7.62 mL/min/kg and a half-life ([9]; male, ICR, mouse, PO 30 mg/kg) of 358 min. The AUC0-t ([9]; male, ICR, mouse, PO 30 mg/kg) was 81.1 µg·h/mL, the half-life ([9]; male, ICR, mouse, PO 50 mg/kg) was 300 min and the AUC0-t ([9]; male, ICR, mouse, PO 50 mg/kg) was 123 µg·h/mL. It also gave a half-life at 1 μM (in vitro [5]) of over 145 min, an IC50 [1, 21] of 70 nM and a half-life at 1 μM [10] of 132 min. It also gave an IC50 (PRMT5/MEP50) of 47 nM and an IC50 [2, 21] of 6270 nM.

In the case of `O=c1ccc2ccc(O)cc2o1` [Ref. 2, 7-Hydroxycoumarin, reference compound], the CLint scaled at 3 μM [11] is reported as 3170 mL/min/kg, the half-life at 3 μM [11] is reported as 2 min and the “CLint (hep) R” value [12] is reported as 678.0 μL/min/10^6. For the same compound, the CLint scaled at 3 μM [13] was 7220 mL/min/kg, the half-life at 3 μM [13] was 2.3 min and the “CLint (hep) M” value [14] was 608.1 μL/min/10^6. The CLint scaled at 3 μM [15] was 3270 mL/min/kg, the half-life at 3 μM [15] was 2.9 min and the “CLint (hep) D” value [16] was 475.1 μL/min/10^6. The CLint scaled at 3 μM [17] was 2360 mL/min/kg, the half-life at 3 μM [17] was 2.1 min and the “CLint (hep) C” value [18] was 655.8 μL/min/10^6. The CLint scaled at 3 μM [19] was 1020 mL/min/kg, the half-life at 3 μM [19] was 3 min and the “CLint (hep) H” value [20] was 367.6 μL/min/10^6.
